According to ChEMBL document CHEMBL3351824, “Synthesis and biological evaluation of novel tacrine derivatives and tacrine-coumarin hybrids as cholinesterase inhibitors” (J Med Chem, 2014):

Tests used:
Acetylcholinesterase [1] = target: T1, Acetylcholinesterase (Homo sapiens, UniProt P22303)
Description: Inhibition of human recombinant AChE pre-incubated for 5 mins before acetylthiocholine substrate addition by Ellman's method

Cholinesterase = Cholinesterase (Homo sapiens, UniProt P06276)
Description: Inhibition of human BuChE pre-incubated for 5 mins before butylthiocholine substrate addition by Ellman's method

Acetylcholinesterase [2] = target: T1, Acetylcholinesterase; remark: listed apart in the source
Description: Inhibition of human recombinant AChE assessed as dissociation constant for enzyme-inhibitor complex by Lineweaver-Burk plot

Acetylcholinesterase [3] = target: T1, Acetylcholinesterase; remark: listed apart in the source
Description: Inhibition of human recombinant AChE assessed as dissociation constant for enzyme-inhibitor-substrate complex by Lineweaver-Burk plot

T1 sequence (P22303 whole entry): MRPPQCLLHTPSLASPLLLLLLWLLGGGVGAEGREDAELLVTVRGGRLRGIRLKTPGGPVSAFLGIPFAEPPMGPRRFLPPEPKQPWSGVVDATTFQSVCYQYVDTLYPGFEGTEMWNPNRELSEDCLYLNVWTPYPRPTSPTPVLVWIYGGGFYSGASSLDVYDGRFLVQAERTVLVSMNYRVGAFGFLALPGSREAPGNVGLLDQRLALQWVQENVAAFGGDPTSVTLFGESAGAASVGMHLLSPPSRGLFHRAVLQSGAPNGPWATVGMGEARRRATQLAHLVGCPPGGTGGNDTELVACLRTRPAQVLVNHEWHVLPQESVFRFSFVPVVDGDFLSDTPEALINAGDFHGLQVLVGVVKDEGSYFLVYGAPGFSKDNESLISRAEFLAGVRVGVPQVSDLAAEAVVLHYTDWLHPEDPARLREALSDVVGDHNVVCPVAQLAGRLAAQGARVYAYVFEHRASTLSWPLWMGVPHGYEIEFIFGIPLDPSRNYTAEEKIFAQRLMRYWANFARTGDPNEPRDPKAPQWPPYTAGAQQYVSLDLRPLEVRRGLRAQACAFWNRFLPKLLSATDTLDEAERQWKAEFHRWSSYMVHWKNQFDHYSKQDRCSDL
Cholinesterase, sequence (P06276 whole entry): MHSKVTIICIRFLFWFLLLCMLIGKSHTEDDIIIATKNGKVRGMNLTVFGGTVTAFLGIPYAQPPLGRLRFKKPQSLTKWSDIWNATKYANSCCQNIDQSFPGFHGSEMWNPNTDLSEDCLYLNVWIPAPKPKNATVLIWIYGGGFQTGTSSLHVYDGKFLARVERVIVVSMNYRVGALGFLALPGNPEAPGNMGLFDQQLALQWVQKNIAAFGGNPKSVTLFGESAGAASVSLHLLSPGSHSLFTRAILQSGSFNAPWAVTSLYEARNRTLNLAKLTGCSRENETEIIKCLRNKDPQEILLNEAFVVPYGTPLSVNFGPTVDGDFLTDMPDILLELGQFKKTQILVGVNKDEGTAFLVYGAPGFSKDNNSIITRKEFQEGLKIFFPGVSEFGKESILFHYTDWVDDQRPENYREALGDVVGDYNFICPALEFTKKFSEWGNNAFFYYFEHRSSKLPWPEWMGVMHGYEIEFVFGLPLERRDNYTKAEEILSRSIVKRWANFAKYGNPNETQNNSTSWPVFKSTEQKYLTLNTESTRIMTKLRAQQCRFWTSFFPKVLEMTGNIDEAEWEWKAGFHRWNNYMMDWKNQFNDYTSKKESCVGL

Compound	IC50 (Acetylcholinesterase [1]) [nM]	IC50 (Cholinesterase) [nM]	Ki (Acetylcholinesterase [2]) [nM]	Ki (Acetylcholinesterase [3]) [nM]
CCN(CCC(=O)NCCNc1c2c(nc3ccccc13)CCCC2)C1CCCCC1	233	765	–	–
CCN(CCC(=O)NCCCNc1c2c(nc3ccccc13)CCCC2)C1CCCCC1	26.3	267	80.4	78.9
CCN(CCC(=O)NCCCCNc1c2c(nc3ccccc13)CCCC2)C1CCCCC1	94.2	228	199	328
CN(CCC(=O)NCCNc1c2c(nc3ccccc13)CCCC2)C1CCCCC1	580	2030	–	–
CN(CCC(=O)NCCCNc1c2c(nc3ccccc13)CCCC2)C1CCCCC1	398	2380	–	–
CN(CCC(=O)NCCCCNc1c2c(nc3ccccc13)CCCC2)C1CCCCC1	104	2230	–	–
O=C(Cc1cc(=O)oc2cc(O)ccc12)NCCNc1c2c(nc3ccccc13)CCCC2	2910	12600	–	–
O=C(Cc1cc(=O)oc2cc(O)ccc12)NCCCNc1c2c(nc3ccccc13)CCCC2	277	827	–	–
O=C(Cc1cc(=O)oc2cc(O)ccc12)NCCCCNc1c2c(nc3ccccc13)CCCC2	15.4	328	4.1	23.4
O=C(Cc1cc(=O)oc2cc(O)ccc12)NNC(=S)Nc1c2c(nc3ccccc13)CCCC2	8170	1420	1940	92800
O=C(Cc1cc(=O)oc2cc(O)ccc12)N/N=C1\SCC(=O)N1c1c2c(nc3ccccc13)CCCC2	15700	5620	2360	65300
